According to patent US20250176599A1, “FLAVOR COMPOSITION AND FOOD AND BEVERAGE” (TAKASAGO INTERNATIONAL CORPORATION, priority 2021, published 2025):

What was measured:
[1] = Sensory evaluation of degradation component-added shortening I ((E)-2-octenal 500 ppb); settings: average panel score
Experimental: (§1) To commercially available shortening (“Pampas LTR30” manufactured by Fuji Oil Co., Ltd.), each degradation component was added to prepare degradation component-added shortenings I and II at the concentrations listed in Table 17. To these degradation component-added shortenings, β-ionone was added at the concentrations listed in Table 18 to confirm the intensity of the off-flavor (masking effect) and the intensity of the masking components (impact on the flavor of the shortening itself) for each sample.
Eight experienced panelists were selected to conduct a sensory evaluation similar to that of Example 1. […]

[2] = Sensory evaluation of degradation component-added shortening II (1,5-octadien-3-one 1 ppb); settings: average panel score
Experimental: as §1
(§2) Eight experienced panelists were selected to conduct a sensory evaluation similar to that of Example 1.
(§3) The same method as in Example 16 was used to confirm the intensity of the off-flavor (masking effect) derived from unsaturated fatty acids by β-damascenone and the intensity of the masking components (impact on the flavor of the shortening itself).

[3] = Overall conclusion of the sensory evaluation across shortenings I and II
Experimental: as §1, §2, §3

[4] = Sensory evaluation of degradation component-added mayonnaise II (1,5-octadien-3-one 5 ppm)
Experimental: To commercially available mayonnaise (“Kewpie Mayonnaise” manufactured by Kewpie Corporation), each degradation component was added to prepare degradation component-added mayonnaises I and II at the concentrations listed in Table 20. To these degradation component-added mayonnaises, oleic acid was added at the concentrations listed in Table 21 to confirm the intensity of the off-flavor (masking effect) and the intensity of the masking components (impact on the flavor of the mayonnaise itself) for each sample.
Six experienced panelists were selected to conduct a sensory evaluation similar to that of Example 1.
To the degradation component-added mayonnaise II listed in Table 20, menthyl 3-hydroxybutyrate was added at the concentrations listed in Table 22 to confirm the intensity of the off-flavor (masking effect) and the intensity of the masking component (impact on the flavor of the mayonnaise itself) for each sample.

SMILES | Masking Component Intensity ([1]; 1 ppb added) | Off-Flavor Intensity ([1]; 1 ppb added) | Masking Component Intensity ([1]; 1 ppt added) | Off-Flavor Intensity ([1]; 1 ppt added) | Masking Component Intensity ([1]; 10 ppb added) | Off-Flavor Intensity ([1]; 10 ppb added) | Masking Component Intensity ([1]; 10 ppt added) | Off-Flavor Intensity ([1]; 10 ppt added) | Masking Component Intensity ([1]; 100 ppt added) | Off-Flavor Intensity ([1]; 100 ppt added) | Masking Component Intensity ([2]; 1 ppb added) | Off-Flavor Intensity ([2]; 1 ppb added) | Masking Component Intensity ([2]; 1 ppt added) | Off-Flavor Intensity ([2]; 1 ppt added) | Masking Component Intensity ([2]; 10 ppb added) | Off-Flavor Intensity ([2]; 10 ppb added) | Masking Component Intensity ([2]; 10 ppt added) | Off-Flavor Intensity ([2]; 10 ppt added) | Masking Component Intensity ([2]; 100 ppt added) | Off-Flavor Intensity ([2]; 100 ppt added) | other results
C/C=C/C(=O)C1=C(C)C=CCC1(C)C [β-Damascenone, β-damascenone] | 2.9 | 1.8 | 1.1 | 3.1 | 3.1 | 1.1 | 1.5 | 2.6 | 2.1 | 2.3 | 2.5 | 2.3 | 0.9 | 3.4 | 2.6 | 2.0 | 1.3 | 3.0 | 1.9 | 2.5 | concentration that masks the off-flavor and does not affect the flavor of the shortening itself, upper limit [3]: ≤ 10 ppb
CC(O)CC(=O)OC1CC(C)CCC1C(C)C (stereo not shown) [menthyl 3-hydroxybutyrate] |  |  |  |  |  |  |  |  |  |  |  |  |  |  |  |  |  |  |  |  | concentration that masks the off-flavor and does not affect the flavor of the mayonnaise itself, lower limit [4]: ≥ 100 ppt; concentration that masks the off-flavor and does not affect the flavor of the mayonnaise itself, upper limit [4]: ≤ 100 ppm; Masking Component Intensity ([4]; 1 ppb added): 0.2; Off-Flavor Intensity ([4]; 1 ppb added): 3.0; Masking Component Intensity ([4]; 1 ppm added): 0.6; Off-Flavor Intensity ([4]; 1 ppm added): 0.8; Masking Component Intensity ([4]; 10 ppb added): 0.2; Off-Flavor Intensity ([4]; 10 ppb added): 2.2; Masking Component Intensity ([4]; 10 ppm added): 1.0; Off-Flavor Intensity ([4]; 10 ppm added): 0.6; Masking Component Intensity ([4]; 50 ppm added): 1.6; Off-Flavor Intensity ([4]; 50 ppm added): 0.6; Masking Component Intensity ([4]; 100 ppb added): 0.4; Off-Flavor Intensity ([4]; 100 ppb added): 1.6; Masking Component Intensity ([4]; 100 ppm added): 2.0; Off-Flavor Intensity ([4]; 100 ppm added): 0.6; Masking Component Intensity ([4]; 100 ppt added): 0.2; Off-Flavor Intensity ([4]; 100 ppt added): 3.0
CC(=O)/C=C/C1=C(C)CCCC1(C)C [β-Ionone, β-ionone] | 2.1 | 1.5 | 0.6 | 3.1 | 2.6 | 1.1 | 1.1 | 2.6 | 1.8 | 2.4 | 1.9 | 2.4 | 0.4 | 3.6 | 2.3 | 2.0 | 0.9 | 3.4 | 1.5 | 2.8 | concentration that masks the off-flavor and does not affect the flavor of the shortening itself, lower limit [3]: ≥ 10 ppt; concentration that masks the off-flavor and does not affect the flavor of the shortening itself, upper limit [3]: ≤ 10 ppb
